Laboratory results taken from patent US9708328B2, “Pteridines useful as HCV inhibitors and methods for the preparation thereof” (Janssen Sciences Ireland UC, priority 2005, dated 2017).
Like-named read-outs stand apart in the source and are kept apart here.

Experiments:
[1] = test system: HCV replicon (HCV type 1b) in Huh-7 luc/neo cells; test: Stable replicon cell reporter assay (Huh-Luc, luciferase readout); format: cell-based; conditions: Hepatitis C virus, Huh-7, 72 h, three days incubation, luciferase activity
Text: Stable Replicon Cell Reporter Assays:
The compounds of the present invention are examined for activity in the inhibition of HCV RNA replication in a cellular assay. […] The cellular assay is based on a bicistronic expression construct, as described by Lohmann et al. (1999) Science vol. 285 pp. 110-113 with modifications described by Krieger et al. (2001) Journal of Virology 75: 4614-4624, in a multi-target screening strategy. In essence, the method is as follows.
The assay utilizes the stably transfected cell line Huh-7 luc/neo (hereafter referred to as Huh-Luc). This cell line harbors an RNA encoding a bicistronic expression construct comprising the wild type NS3-NS5B regions of HCV type 1b translated from an Internal Ribosome Entry Site (IRES) from encephalomyocarditis virus (EMCV), preceded by a reporter portion (FfL-luciferase), and a selectable marker portion (neo^R, neomycine phosphotransferase). The construct is bordered by 5′ and 3′ NTRs (non-translated regions) from HCV type 1b. Continued culture of the replicon cells in the presence of G418 (neo^R) is dependent on the replication of the HCV RNA. The stably transfected replicon cells that express HCV RNA, which replicates autonomously and to high levels, encoding inter alia luciferase, are used for screening the antiviral compounds.
Cellular Assay Experimental Method:
The replicon cells are plated in 384 well plates in the presence of the test and control compounds which are added in various concentrations. Following an incubation of three days, HCV replication is measured by assaying luciferase activity (using standard luciferase assay substrates and reagents and a Perkin Elmer ViewLux™ ultraHTS microplate imager). Replicon cells in the control cultures have high luciferase expression in the absence of any inhibitor. The inhibitory activity of the compound on luciferase activity is monitored on the Huh-Luc cells, enabling a dose-response curve for each test compound.

[2] = Pharmacokinetic profile after single oral administration: plasma, heart and liver levels; format: in vivo, male Swiss SPF (CD1)-mice
Experimental: Compound nr. 21 was dissolved in a 10% hydroxypropyl-β-cyclodextrin (HP-β-CD) solution at a final concentration of 1 mg base-eq./ml, .pH 4.36.
Three animals were administered orally the solution of compound nr. 21 to obtain a dose of 20 mg base-eq./kg. Blood samples were taken at 30 min, 1, 2, 4, 8 and 24 h after oral dose administration. Plasma was obtained following centrifugation at 4° C. for 10 minutes at approximately 1900×g.
From each orally dosed animal individual samples of heart and liver were dissected and weighed. Tissue samples were homogenized in demineralized water.
Plasma and tissue samples were analysed for compound nr. 21, using a qualified research LC-MS/MS method.
A limited pharmacokinetic analysis was performed using WinNonlin™ Professional (Version 4.0.1). A non-compartmental analysis using the lin/log trapezoidal rule with lin/log interpolation was used for all data. The variability between animals is indicated by the standard deviation (st dev).

Fc1cccc(-c2nc(Nc3ccncc3)c3nccnc3n2)c1 [Compound 27, 2-(3-fluorophenyl)-4-(4-pyridylamino)pteridine] gave an EC50 [1] of 3 µM.

Cc1cnccc1Nc1nc(-c2cc(Br)ccc2F)nc2nccnc12 [Compound 7, 2-(5-bromo-2-fluorophenyl)-4-(3-methyl-4-pyridylamino)pteridine] gave an EC50 [1] of 0.95 µM.

COC(=O)c1cnccc1Nc1nc(-c2cc(Br)ccc2F)nc2nccnc12 [Compound 13, 4-[[2-(5-Bromo-2-fluorophenyl)pteridin-4-yl]amino]nicotinic acid methyl ester] showed an EC50 [1] of 4.9 µM.

With OCCNc1nc(-c2cc(Br)ccc2F)nc2nccnc12 [Compound 11, 2-(5-bromo-2-fluorophenyl)-4-(2-hydroxyethylamino)pteridine] the EC50 [1] was greater than 32 µM.

In the case of Fc1ccc(Br)cc1-c1nc(N2CCN(c3ccccn3)CC2)c2nccnc2n1 [Compound 12, 2-(5-bromo-2-fluorophenyl)-4-[4-(2-pyridyl)piperazin-1-yl]pteridine], the EC50 [1] is reported as greater than 32 µM.

For Cc1ccccc1Nc1nc(-c2cc(Br)ccc2F)nc2nccnc12 [Compound 9, 2-(5-bromo-2-fluorophenyl)-4-(2-tolylamino)pteridine], the EC50 [1] was 11 µM.

For O=C(NCCCN1CCCC1=O)c1cnccc1Nc1nc(-c2cc(Br)ccc2F)nc2nccnc12 [Compound 21, 4-[[2-(5-bromo-2-fluorophenyl)pteridin-4-yl]amino]-N-[3-(2-oxopyrrolidin-1-yl)propyl]nicotinamide], the EC50 [1] was 0.058 µM, the AUC0-inf ([2]; heart, 20 mg base-eq./kg oral) was 1262 ng·h/mL and the “AUC(0-8 h)” value ([2]; heart, 20 mg base-eq./kg oral) was 1119 ng·h/mL. For the same molecule, the Tmax ([2]; heart, 20 mg base-eq./kg oral) was 0.5 h, the “t1/2 (2-8 h)” value ([2]; heart, 20 mg base-eq./kg oral) was 3.4 h and the Cmax ([2]; heart, 20 mg base-eq./kg oral (Table 4)) was 678 ng/mL. The “Mean tissue level, heart” value ([2]; heart, time 24 h, 20 mg base-eq./kg oral, n=3, LLOQ between 5.00 and 13.16 ng/g) was “BQL^1)”, the AUC0-inf ([2]; liver, 20 mg base-eq./kg oral) was 7973 ng·h/mL and the “AUC(0-8 h)” value ([2]; liver, 20 mg base-eq./kg oral) was 6965 ng·h/mL. For the same molecule, the Tmax ([2]; liver, 20 mg base-eq./kg oral) was 0.5 h, the “t1/2 (2-8 h)” value ([2]; liver, 20 mg base-eq./kg oral) was 3.5 h and the Cmax ([2]; liver, 20 mg base-eq./kg oral (Table 4)) was 4057 ng/mL. The “Mean tissue level, liver” value ([2]; liver, time 24 h, 20 mg base-eq./kg oral, n=3, LLOQ between 5.00 and 13.16 ng/g) was “BQL^1)”, the Cmax ([2]; male, Swiss SPF (CD1), mouse, 20 mg/kg, heart, 0.5 h post dose, 20 mg base-eq./kg oral, read-out: Mean maximum tissue concentration (Cmax)) was 678 ng/g and the Cmax ([2]; male, Swiss SPF (CD1), mouse, 20 mg/kg, liver, 0.5 h post dose, 20 mg base-eq./kg oral, read-out: Mean maximum tissue concentration (Cmax)) was 4060 ng/g. It also gave a concentration at 0.5 h ([2]; male, Swiss SPF (CD1), mouse, plasma, time 0.5 h, 20 mg base-eq./kg oral, n=3, read-out: Mean plasma level) of 220 ng/mL, a concentration at 1 h ([2]; male, Swiss SPF (CD1), mouse, plasma, time 1 h, 20 mg base-eq./kg oral, n=3, read-out: Mean plasma level) of 166 ng/mL and a concentration at 2 h ([2]; male, Swiss SPF (CD1), mouse, plasma, time 2 h, 20 mg base-eq./kg oral, n=3, read-out: Mean plasma level) of 21.7 ng/mL. The concentration at 4 h ([2]; male, Swiss SPF (CD1), mouse, plasma, time 4 h, 20 mg base-eq./kg oral, n=3, read-out: Mean plasma level) was 20.3 ng/mL, the concentration at 8 h ([2]; male, Swiss SPF (CD1), mouse, plasma, time 8 h, 20 mg base-eq./kg oral, n=3, read-out: Mean plasma level) was 5.52 ng/mL and the AUC0-inf ([2]; plasma, 20 mg base-eq./kg oral) was 332 ng·h/mL. For the same molecule, the “AUC(0-8 h)” value ([2]; plasma, 20 mg base-eq./kg oral) was 309 ng·h/mL, the Cmax ([2]; plasma, 20 mg base-eq./kg oral) was 220 ng/mL and the Tmax ([2]; plasma, 20 mg base-eq./kg oral) was 0.5 h. The “t1/2 (2-8 h)” value ([2]; plasma, 20 mg base-eq./kg oral) was 2.9 h and the Mean plasma level ([2]; plasma, time 24 h, 20 mg base-eq./kg oral, n=3, LLOQ 0.500 ng/ml) was “BQL^1)”.

Molecule Fc1ccc(Br)cc1-c1nc(N(Cc2ccccc2)c2ccncc2)c2nccnc2n1 [Compound 5, 4-[(benzyl)(4-pyridyl)amino]-2-(5-bromo-2-fluorophenyl)pteridine] has an EC50 [1] of 0.99 µM.

For CN(c1ccccc1)c1nc(-c2cc(Br)ccc2F)nc2nccnc12 [Compound 10, 2-(5-bromo-2-fluorophenyl)-4-[(methyl)(phenyl)amino]pteridine], the EC50 [1] was 11 µM.

Work on Cc1cnccc1Nc1nc(-c2cc(Cl)ccc2F)nc2nccnc12 [Compound 25, 2-(5-chloro-2-fluorophenyl)-4-(3-methyl-4-pyridylamino)pteridine] yielded an EC50 [1] of 0.48 µM.

In the case of Clc1cccc(-c2nc(Nc3ccncc3)c3nccnc3n2)c1 [Compound 18, 2-(3-chlorophenyl)-4-(4-pyridylamino)pteridine], the EC50 [1] is reported as 1.5 µM.

Work on CC(C)(C)CCN(c1ccncc1)c1nc(-c2cc(Br)ccc2F)nc2nccnc12 [Compound 4, 2-(5-bromo-2-fluorophenyl)-4-[(3,3-dimethylbutyl)(4-pyridyl)amino]pteridine] yielded an EC50 [1] of 0.48 µM.

Molecule Fc1ccc(Br)cc1-c1nc(Nc2ccncc2)c2nccnc2n1 [Compound 1, 2-(5-bromo-2-fluorophenyl)-4-(4-pyridylamino)pteridine] has an EC50 [1] of 0.352 µM.

Work on CN(c1ccncc1)c1nc(-c2cc(Br)ccc2F)nc2nccnc12 [Compound 2, 2-(5-bromo-2-fluorophenyl)-4-[(methyl)(4-pyridyl)amino]pteridine] yielded an EC50 [1] of 3.65 µM.

Fc1ccc(Br)cc1-c1nc(Nc2ccccc2)c2nccnc2n1 [Compound 8, 2-(5-bromo-2-fluorophenyl)-4-(phenylamino)pteridine] showed an EC50 [1] greater than 32 µM.

Molecule CCc1cnccc1Nc1nc(-c2cc(Cl)ccc2F)nc2nccnc12 [Compound 23, 2-(5-chloro-2-fluorophenyl)-4-(3-ethyl-4-pyridylamino)pteridine] has an EC50 [1] of 0.52 µM.

Molecule CCCCN(c1ccncc1)c1nc(-c2cc(Br)ccc2F)nc2nccnc12 [Compound 3, 4-[(butyl)(4-pyridyl)amino]-2-(5-bromo-2-fluorophenyl)pteridine] has an EC50 [1] of 2.2 µM.

FC(F)(F)c1cccc(-c2nc(Nc3ccncc3)c3nccnc3n2)c1 [Compound 26, 2-(3-trifluoromethylphenyl)-4-(4-pyridylamino)pteridine] gave an EC50 [1] of 2 µM.

For Fc1ccc(Br)cc1-c1nc(N(CCc2ccccc2)c2ccncc2)c2nccnc2n1 [Compound 22, 2-(5-bromo-2-fluorophenyl)-4-[(phenethyl)(4-pyridyl)amino]-pteridine], the EC50 [1] was 1.96 µM.

With Fc1ccc(Cl)cc1-c1nc(Nc2ccncc2)c2nccnc2n1 [Compound 24, 2-(5-chloro-2-fluorophenyl)-4-(4-pyridylamino)pteridine] the EC50 [1] was 0.78 µM.

Cc1cnccc1Nc1nc(-c2cc(Br)ccc2N2CCCC2)nc2nccnc12 [Compound 6, 2-(5-Bromo-2-pyrrolidin-1-ylphenyl)-4-(3-methyl-4-pyridylamino)pteridine] showed an EC50 [1] of 18 µM.

In the case of Cc1cccc(-c2nc(Nc3ccncc3C)c3nccnc3n2)n1 [Compound 19, 2-(2-methyl-6-pyridyl)-4-[(3-methyl-4-pyridyl)amino]pteridine], the EC50 [1] is reported as 12 µM.

With Cc1cc(Nc2nc(-c3cc(Br)ccc3F)nc3nccnc23)ccn1 [Compound 15, 2-(5-bromo-2-fluorophenyl)-4-(2-methyl-4-pyridylamino)pteridine] the EC50 [1] was 3.56 µM.

Work on Fc1ccc(Br)cc1-c1nc(Nc2ccc(N3CCOCC3)cc2)c2nccnc2n1 [Compound 14, 2-(5-bromo-2-fluorophenyl)-4-(4-morpholinophenylamino)pteridine] yielded an EC50 [1] of 8.7 µM.
